# Source: EP2975030B1, “DIHYDROPYRIDAZINE-3,5-DIONE DERIVATIVE” (Chugai Seiyaku Kabushiki Kaisha, priority 2013, dated 2014)
# Test system: rat small-intestinal brush border membrane vesicles
# Assay: Inhibitory effect on 33PO4 uptake into rat small-intestinal brush border membrane vesicles (rapid filtration method)
# Type: biochemical, Wistar female rat
# Details: 1 µM test compound; 33PO4 uptake into rat small-intestinal BBMVs, 60 seconds
# Procedure, shortened: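 33PO4 uptake into rat small-intestinal brush border membrane vesicles measured by rapid filtration. Reactions were stopped with ice-cold buffer (110 mM NaCl, 1 mM KH2PO4, 10 mM HEPES pH 7.5), filtered and washed. Vesicle-associated radioactivity was counted by liquid scintillation.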
row,SMILES,Rate of uptake inhibition (%) (1 µM)
1,Cc1c(-c2cc(C(F)(F)F)ccc2NC(=O)C2=C(O)[C@H](C(C)(C)C)N(C)N(Cc3ccc(OCCN4CCOCC4)c(F)c3F)C2=O)ncnc1C(F)(F)F [Example 278],69%
2,CC(C)[C@H]1C(O)=C(C(=O)Nc2ccc(C(F)(F)F)cc2-c2ccc(C(F)(F)F)nc2)C(=O)N(Cc2ccc(OCCN3CCOCC3)c(F)c2F)N1C [Example 280],50%
3,CC(C)[C@H]1C(O)=C(C(=O)Nc2ccc(Cl)cc2-c2ccc(C(F)(F)F)nc2)C(=O)N(Cc2ccc(OCCN3CCOCC3)c(F)c2F)N1C [Example 281],41%
4,CN1N(Cc2ccc(OCCN3CCOCC3)c(F)c2F)C(=O)C(C(=O)Nc2ccc(C(F)(F)F)cc2-c2ccc(C(F)(F)F)nc2)=C(O)C12CCC2 [Example 282],55%
5,Cc1c(C#N)ncnc1-c1cc(C(F)(F)F)ccc1NC(=O)C1=C(O)C2(CCC2)N(C)N(Cc2ccc(OCCN3CCOCC3)c(F)c2F)C1=O [Example 283],45%
6,CN1N(Cc2ccc(OCCN3CCOCC3)c(F)c2F)C(=O)C(C(=O)Nc2ccc(C(F)(F)F)cc2-c2ncnc(C(F)(F)F)c2Cl)=C(O)C12CCC2 [Example 284],46%
7,Cc1c(-c2cc(C(F)(F)F)ccc2NC(=O)C2=C(O)C3(CCC3)N(C)N(Cc3ccc(OCCN4CCOCC4)c(F)c3F)C2=O)ncnc1C(F)(F)F [Example 285],62%
8,CN1N(Cc2ccc(OCCN3CCOCC3)c(F)c2F)C(=O)C(C(=O)Nc2ccc(Cl)cc2-c2cc(C(F)(F)F)ncn2)=C(O)C12CCCC2 [Example 286],50%
9,CN1N(Cc2ccc(OCCN3CCOCC3)c(F)c2F)C(=O)C(C(=O)Nc2ccc(C(F)(F)F)cc2-c2ccc(C(F)(F)F)nc2)=C(O)C12CCCC2 [Example 287],47%
10,CN1N(Cc2ccc(OCCN3CCOCC3)c(F)c2F)C(=O)C(C(=O)Nc2ccc(Cl)cc2-c2ccc(C(F)(F)F)nc2)=C(O)C12CCCC2 [Example 288],61%
11,CSc1ccc(-c2cc(C(F)(F)F)ccc2NC(=O)C2=C(O)C3(CCCC3)N(C)N(Cc3ccc(OCCN4CCOCC4)c(F)c3F)C2=O)cn1 [Example 289],55%
12,Cc1c(-c2cc(C(F)(F)F)ccc2NC(=O)C2=C(O)C3(CCCC3)N(C)N(Cc3ccc(OCCN4CCOCC4)c(F)c3F)C2=O)ncnc1C(F)(F)F [Example 290],59%
13,CCC1(CC)C(O)=C(C(=O)Nc2ccc(C(F)(F)F)cc2-c2cc(C(F)(F)F)ncn2)C(=O)N(Cc2ccc(OCCN3CCOCC3)c(F)c2F)N1C [Example 291],47%
14,CCC1(CC)C(O)=C(C(=O)Nc2ccc(Cl)cc2-c2cc(C(F)(F)F)ncn2)C(=O)N(Cc2ccc(OCCN3CCOCC3)c(F)c2F)N1C [Example 292],44%
15,CCC1(CC)C(O)=C(C(=O)Nc2ccc(C(F)(F)F)cc2-c2ccc(C(F)(F)F)nc2)C(=O)N(Cc2ccc(OCCN3CCOCC3)c(F)c2F)N1C [Example 293],47%
16,CCC1(CC)C(O)=C(C(=O)Nc2ccc(Cl)cc2-c2ccc(C(F)(F)F)nc2)C(=O)N(Cc2ccc(OCCN3CCOCC3)c(F)c2F)N1C [Example 294],40%
17,CN1N(Cc2ccc(OCCN3CCOCC3)c(F)c2F)C(=O)C(C(=O)Nc2ccc(C(F)(F)F)cc2-c2cc(C(F)(F)F)ncn2)=C(O)C12CCCCC2 [Example 295],21%
18,Cc1c(-c2cc(C(F)(F)F)ccc2NC(=O)C2=C(O)C3(CCCCC3)N(C)N(Cc3ccc(OCCN4CCOCC4)c(F)c3F)C2=O)ncnc1C(F)(F)F [Example 296],17%
19,CN1N(Cc2ccc(OCCN3CCOCC3)c(F)c2F)C(=O)C(C(=O)Nc2ccc(Cl)cc2-c2cc(C(F)(F)F)ncn2)=C(O)C12CCCCC2 [Example 297],36%
20,CN1N(Cc2ccc(OCCN3CCOCC3)c(F)c2F)C(=O)C(C(=O)Nc2ccc(Br)c(C(F)(F)F)n2)=C(O)C12CCCCC2 [Example 298],10%
21,CC1(C)C(O)=C(C(=O)Nc2ccc(C(F)(F)F)cc2-c2cc(C(F)(F)F)ncn2)C(=O)N(Cc2cccc(F)c2F)N1c1ccccc1 [Example 299],45%

row,SMILES,Rate of uptake inhibition (%) (1 µM)
1,CN1N(Cc2cccc(F)c2F)C(=O)C(C(=O)Nc2ccc(C(F)(F)F)cc2-c2cc(C(F)(F)F)ncn2)=C(O)C12CCC2 [Example 300],74%
2,CN1N(Cc2cccc(F)c2F)C(=O)C(C(=O)Nc2ccc(C(F)(F)F)cc2-c2ccc(C(F)(F)F)nc2)=C(O)C12CCC2 [Example 301],79%
3,COc1cc(-c2cc(C(F)(F)F)ccc2NC(=O)C2=C(O)C(C)(C)N(C)N(Cc3cccc(F)c3F)C2=O)cnc1C#N [Example 302],79%
4,CN1N(Cc2cccc(F)c2F)C(=O)C(C(=O)Nc2ccc(C(F)(F)F)cc2-c2cc(C#N)ncn2)=C(O)C1(C)C [Example 303],42%
5,CN1N(Cc2cccc(F)c2F)C(=O)C(C(=O)Nc2ccc(C(F)(F)F)nc2-c2ccc(C(F)(F)F)nc2)=C(O)C1(C)C [Example 304],51%
6,CN1N(Cc2cccc(F)c2F)C(=O)C(C(=O)Nc2ccc(C(F)(F)F)cc2-c2cncc(C(F)(F)F)c2)=C(O)C1(C)C [Example 305],66%
7,CN1N(Cc2cccc(F)c2F)C(=O)C(C(=O)Nc2ccc(C(F)(F)F)nc2-c2cncc(C(F)(F)F)c2)=C(O)C1(C)C [Example 306],58%
8,CN1N(Cc2cccc(F)c2F)C(=O)C(C(=O)Nc2cc(C(F)(F)F)ccc2-c2ccc(C(F)(F)F)nc2)=C(O)C1(C)C [Example 307],41%
9,CN1N(Cc2cccc(F)c2F)C(=O)C(C(=O)Nc2ccc(C(F)(F)F)cc2-c2ccc(S(=O)(=O)N(C)C)cc2)=C(O)C1(C)C [Example 308],63%
10,CN1N(Cc2cccc(F)c2F)C(=O)C(C(=O)Nc2ccc(Cl)cc2-c2ccc(C(F)(F)F)nc2)=C(O)C1(C)C [Example 309],68%
11,CSc1ccc(-c2cc(C(F)(F)F)ccc2NC(=O)C2=C(O)C(C)(C)N(C)N(Cc3cccc(F)c3F)C2=O)cn1 [Example 310],63%
12,Cc1c(C#N)ncnc1-c1cc(C(F)(F)F)ccc1NC(=O)C1=C(O)C(C)(C)N(C)N(Cc2cccc(F)c2F)C1=O [Example 311],65%
13,CN1N(Cc2cccc(F)c2F)C(=O)C(C(=O)Nc2ccc(C(F)(F)F)cc2-c2ncnc(C#N)c2Cl)=C(O)C1(C)C [Example 312],74%
14,"CN1N(Cc2ccc(OCCN3CCOCC3)c(F)c2F)C(=O)C(C(=O)Nc2ccc(C(F)(F)F)cc2-c2cc(C(F)(F)F)ncn2)=C(O)C1(C)C [Example 313, 2-[[2,3-Difluoro-4-(2-morpholin-4-ylethoxy)phenyl]methyl]-5-hydroxy-1,6,6-trimethyl-3-oxo-N-[4-(trifluoromethyl)-2-[6-(trifluoromethyl)pyrimidin-4-yl]phenyl]pyridazine-4-carboxamide]",65%
15,"CN1N(Cc2ccc(OCCN3CCOCC3)c(F)c2F)C(=O)C(C(=O)Nc2ccc(C(F)(F)F)cc2-c2ccc(C(F)(F)F)nc2)=C(O)C1(C)C [Example 314, 2-[[2,3-Difluoro-4-(2-morpholin-4-ylethoxy)phenyl]methyl]-5-hydroxy-1,6,6-trimethyl-3-oxo-N-[4-(trifluoromethyl)-2-[6-(trifluoromethyl)pyridin-3-yl]phenyl]pyridazine-4-carboxamide]",72%
16,"CN1N(Cc2ccc(C#CCN3CCOCC3)c(F)c2F)C(=O)C(C(=O)Nc2ccc(C(F)(F)F)cc2-c2cc(C(F)(F)F)ncn2)=C(O)C1(C)C [Example 315, 2-[[2,3-Difluoro-4-(3-morpholin-4-ylprop-1-ynil)phenyl]methyl]-5-hydroxy-1,6,6-trimethyl-3-oxo-N-[4-(trifluoromethyl)-2-[6-(trifluoromethyl)pyrimidin-4-yl]phenyl]pyridazine-4-carboxamide]",63%
17,"CN1N(Cc2ccc(C#CCN3CCOCC3)c(F)c2F)C(=O)C(C(=O)Nc2ccc(Cl)cc2-c2cc(C(F)(F)F)ncn2)=C(O)C1(C)C [Example 316, N-[4-Chloro-2-[6-(trifluoromethyl)pyrimidin-4-yl]phenyl]-2-[[2,3-difluoro-4-(3-morpholin-4-ylprop-1-ynil)phenyl]methyl]-5-hydroxy-1,6,6-trimethyl-3-oxopyridazine-4-carboxamide]",64%
18,"CN1N(Cc2ccc(OCCCC(=O)O)c(F)c2F)C(=O)C(C(=O)Nc2ccc(C(F)(F)F)cc2-c2cc(C(F)(F)F)ncn2)=C(O)C12CCCC2 [Example 332, 4-[2,3-Difluoro-4-[[10-hydroxy-6-methyl-8-oxo-9-[[4-(trifluoromethyl)-2-[6-(trifluoromethyl)pyrimidin-4-yl]phenyl]carbamoyl]-6,7-diazaspiro[4.5]dec-9-en-7-yl]methyl]phenoxy]butanoate]",3%
19,CN1N(Cc2ccc(OCCCCCC(=O)O)c(F)c2F)C(=O)C(C(=O)Nc2ccc(C(F)(F)F)cc2-c2cc(C(F)(F)F)ncn2)=C(O)C12CCCC2 [Example 334],22%
20,CN1N(Cc2ccc(OCCCCCCC(=O)O)c(F)c2F)C(=O)C(C(=O)Nc2ccc(C(F)(F)F)cc2-c2cc(C(F)(F)F)ncn2)=C(O)C12CCCC2 [Example 335],30%
21,"CN1N(Cc2ccc(OCC(=O)N3CCOCC3)c(F)c2F)C(=O)C(C(=O)Nc2ccc(C(F)(F)F)cc2-c2cc(C(F)(F)F)ncn2)=C(O)C12CCC2 [Example 336, 8-[[2,3-Difluoro-4-(2-morpholin-2-oxo-ethoxy)phenyl]methyl]-5-hydroxy-9-methyl-7-oxo-N-[4-(trifluoromethyl)-2-[6-(trifluoromethyl)pyrimidin-4yl]phenyl]-8,9-diazaspiro[3.5]non-5-ene-6-carboxamide]",44%
